Results from patent US8906909B2 (Curis, Inc., priority 2009, dated 2014).
Like-named read-outs stand apart in the source and are kept apart here.

What was measured:
Assay type in all cases: cell-based
H1975 cells = experiment: Cell proliferation assay Method B, H1975; details: Homo sapiens, NCI-H1975; NSCLC; Method B; 72 hours; read-out: antiproliferative activity IC50, H1975
Procedure: (§1) Cancer cell lines were plated at 5,000 to 10,000 per well in 96-well flat bottomed plates with various concentration of compounds. The cells were incubated with compounds for 72 hours in the presence of 0.5% of fetal bovine serum. Growth inhibition was accessed by adenosine triphosphate (ATP) content assay using Promega CellTiter-Glo kit. Promega CellTiter-Glo kit is an ATP monitoring system based on firefly luciferase. Briefly, 16 μl of mammalian cell lysis and substrate solution was added to 84 μl of culture medium per well to lyse the cells and stabilize the ATP. The mixture was shaken and incubated for 30 minutes and subsequently the luminescence was measured.

H1993 cells = experiment: Cell proliferation assay Method B, H1993; details: Homo sapiens, NCI-H1993; NSCLC; Method B; 72 hours; read-out: antiproliferative activity IC50, H1993
Procedure: as §1

MDA-MB-231 cells = experiment: Cell proliferation assay Method B, MDA-MB-231; details: Homo sapiens, Breast, Method B, 72 hours
Procedure: as §1

HCC1500 cells = experiment: Cell proliferation assay Method B, HCC1500; details: Breast, 72 hours, read-out: antiproliferative activity IC50, HCC1500
Procedure: as §1

HCC1806 cells = experiment: Cell proliferation assay Method B, HCC1806; details: Homo sapiens, Breast, 72 hours, read-out: antiproliferative activity IC50, HCC1806
Procedure: as §1

SKBr3 cells = experiment: Cell proliferation assay Method B, SKBr3; details: Homo sapiens, SK-BR-3, Breast, 72 hours, read-out: antiproliferative activity IC50, SKBr3
Procedure: as §1

BT474 cells = experiment: Cell proliferation assay Method B, BT474; details: Homo sapiens, BT-474; Breast; Method B; 72 hours; read-out: antiproliferative activity IC50, BT474
Outline: (§2)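 After 72 hours of exposure to test compounds at multiple concentrations, with fetal bovine serum held at 0.5%, cells were lysed to stabilise ATP and luminescence was measured to gauge growth inhibition.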

UACC-893 cells = experiment: Cell proliferation assay Method B, UACC-893; details: Homo sapiens, Breast, 72 hours, read-out: antiproliferative activity IC50, UACC-893
Procedure: as §1

MDA-MB-453 cells = experiment: Cell proliferation assay Method B, MDA-MB-453; details: Homo sapiens, Breast, 72 hours, read-out: antiproliferative activity IC50, MDA-MB-453
Procedure: as §1

MCF-7 cells = experiment: Cell proliferation assay Method B, MCF-7; details: Homo sapiens, MCF7, Breast, 72 hours, read-out: antiproliferative activity IC50, MCF-7
Procedure: as §1

ZR-75-1 cells = experiment: Cell proliferation assay Method B, ZR-75-1; details: Homo sapiens, Breast, 72 hours, read-out: antiproliferative activity IC50, ZR-75-1
Procedure: as §1

HCC1937 cells = experiment: Cell proliferation assay Method B, HCC1937; details: Homo sapiens, Breast, Method B, 72 hours, read-out: antiproliferative activity IC50, HCC1937
Procedure: as §1

MDA-MB-436 cells = experiment: Cell proliferation assay Method B, MDA-MB-436; details: Homo sapiens, Breast, Method B, 72 hours, read-out: antiproliferative activity IC50, MDA-MB-436
Procedure: as §1

U87MG cells = experiment: Cell proliferation assay Method B, U87MG; details: Homo sapiens, U-87 MG; Glioblastoma; Method B; 72 hours; read-out: antiproliferative activity IC50, U87MG
Procedure: as §1

Ca127 cells = experiment: Cell proliferation assay Method B, Ca127; details: HNC; Method B; 72 hours; read-out: antiproliferative activity IC50, Ca127
Procedure: as §1

Sk-Mel-28 cells = experiment: Cell proliferation assay Method B, Sk-Mel-28; details: Homo sapiens, SK-MEL-28; Melanoma; Method B; 72 hours; read-out: antiproliferative activity IC50, Sk-Mel-28
Outline: as §2

A375 cells = experiment: Cell proliferation assay Method B, A375; details: Homo sapiens, A-375; Melanoma; Method B; 72 hours; read-out: antiproliferative activity IC50, A375
Procedure: as §1

MOLT-4 cells = experiment: Cell proliferation assay Method B, MOLT-4; details: Homo sapiens, ALL, 72 hours, read-out: antiproliferative activity IC50, MOLT-4
Procedure: as §1

HL-60 cells = experiment: Cell proliferation assay Method B, HL-60; details: Homo sapiens, AML, 72 hours, read-out: antiproliferative activity IC50, HL-60
Procedure: as §1

U937 cells = experiment: Cell proliferation assay Method B, U937; details: Homo sapiens, U-937, AML, 72 hours, read-out: antiproliferative activity IC50, U937
Procedure: as §1

THP-1 cells = experiment: Cell proliferation assay Method B, THP-1; details: Homo sapiens, AML, 72 hours, read-out: antiproliferative activity IC50, THP-1
Procedure: as §1

Pfeiffer cells = experiment: Cell proliferation assay Method B, Pfeiffer; details: Homo sapiens, NHL, 72 hours, read-out: antiproliferative activity IC50, Pfeiffer
Procedure: as §1

Raji cells = experiment: Cell proliferation assay Method B, Raji; details: Homo sapiens, NHL, 72 hours, read-out: antiproliferative activity IC50, Raji
Procedure: as §1

Daudi cells = experiment: Cell proliferation assay Method B, Daudi; details: Homo sapiens, NHL, 72 hours, read-out: antiproliferative activity IC50, Daudi
Procedure: as §1

K562 cells = experiment: Cell proliferation assay Method B, K562; details: Homo sapiens, CML, 72 hours, read-out: antiproliferative activity IC50, K562
Procedure: as §1

MEG-01 cells = experiment: Cell proliferation assay Method B, MEG-01; details: Homo sapiens, CML, 72 hours, read-out: antiproliferative activity IC50, MEG-01
Procedure: as §1

RPMI-8226 cells = experiment: Cell proliferation assay Method B, RPMI-8226; details: Homo sapiens, Multiple Myeloma, Method B, 72 hours, read-out: antiproliferative activity IC50, RPMI-8226
Outline: as §2

L1210 cells = experiment: Cell proliferation assay Method B, L1210; details: Mouse LL, 72 hours, read-out: antiproliferative activity IC50, L1210
Procedure: as §1

P388 D1 cells = experiment: Cell proliferation assay Method B, P388 D1; details: P388D1, Mouse Lymphoma, 72 hours, read-out: antiproliferative activity IC50, P388 D1
Procedure: as §1

[1] = read-out: antiproliferative activity IC50, MDA-MB-231 (second listing, r32)

| SMILES | IC50 (H1975 cells) [nM] | IC50 (H1993 cells) [nM] | IC50 (MDA-MB-231 cells; [1]) [µM] | IC50 (HCC1500 cells) [µM] | IC50 (HCC1806 cells) [nM] | IC50 (SKBr3 cells) [nM] | IC50 (BT474 cells) [nM] | IC50 (UACC-893 cells) [nM] | IC50 (MDA-MB-453 cells) [nM] | IC50 (MCF-7 cells) [nM] | IC50 (ZR-75-1 cells) [nM] | IC50 (HCC1937 cells) [nM] | IC50 (MDA-MB-436 cells) [nM] | IC50 (U87MG cells) [nM] | IC50 (Ca127 cells) [nM] | IC50 (Sk-Mel-28 cells) [nM] | IC50 (A375 cells) [nM] | IC50 (MOLT-4 cells) [nM] | IC50 (HL-60 cells) [nM] | IC50 (U937 cells) [nM] | further results |
| --- | --- | --- | --- | --- | --- | --- | --- | --- | --- | --- | --- | --- | --- | --- | --- | --- | --- | --- | --- | --- | --- |
| CN(Cc1cc2nc(-c3ccc(N)cc3)nc(N3CCOCC3)c2s1)c1ncc(C(=O)NO)cn1 [Compound 150, 2-(((2-(4-aminophenyl)-4-morpholinothieno[3,2-d]pyrimidin-6-yl)methyl)(methyl)amino)-N-hydroxypyrimidine-5-carboxamide] | < 10 | < 10 | 0.01 to 0.1 | < 0.01 | 10 to 100 | 10 to 100 | < 10 | < 10 | < 10 | < 10 | 10 to 100 | < 10 | < 10 | < 10 | < 10 | < 10 | < 10 | < 10 | < 10 | < 10 | IC50 (THP-1 cells): < 10 nM; IC50 (Pfeiffer cells): < 10 nM; IC50 (Raji cells): < 0.01 µM; IC50 (Daudi cells): < 0.01 µM; IC50 (K562 cells): 10 to 100 nM; IC50 (MEG-01 cells): 10 to 100 nM; IC50 (RPMI-8226 cells): < 0.01 µM; IC50 (L1210 cells): < 0.01 µM; IC50 (P388 D1 cells): < 10 nM |
| CS(=O)(=O)N1CCN(Cc2cc3nc(-c4cccc5[nH]ncc45)nc(N4CCOCC4)c3s2)CC1 [GDC-0941, reference compound] | 100 to 1000 | 1000 to 10000 | > 10 | > 10 | > 10000 | > 10000 | 100 to 1000 | 1000 to 10000 | 100 to 1000 | 100 to 1000 | 100 to 1000 | 100 to 1000 | 1000 to 10000 | 100 to 1000 | 100 to 1000 | 10 to 100 | 1000 to 10000 | 100 to 1000 | 100 to 1000 | 1000 to 10000 | IC50 (MDA-MB-231 cells; read-out: antiproliferative activity IC50, MDA-MB-231 (first listing, r25)): > 10 µM; IC50 (THP-1 cells): 1000 to 10000 nM; IC50 (Pfeiffer cells): 100 to 1000 nM; IC50 (Raji cells): > 10 µM; IC50 (Daudi cells): > 10 µM; IC50 (K562 cells): > 10000 nM; IC50 (MEG-01 cells): > 10000 nM; IC50 (RPMI-8226 cells): > 10 µM; IC50 (L1210 cells): > 10 µM; IC50 (P388 D1 cells): 1000 to 10000 nM |
